These results are taken from publication PMC6681222, “Discovery and Rational Design of a Novel Bowman-Birk Related Protease Inhibitor” (Biomolecules, 2019).

For data set [1], the system named is methicillin-resistant S. aureus (MRSA) (ATCC 12493). The format is cell-based. How it is done:
(§1) The MIC and MBC of the synthetic peptides were determined as previously described, using S. aureus (NCTC 10788), E. coli (NCTC 10418) and C. albicans (NCYC 1467), together with two species of resistant micro-organisms, methicillin-resistant S. aureus (MRSA) (ATCC 12493) and P. aeruginosa (ATCC 27853).

The subject of the next data set is E. coli (NCTC 10418). The format is cell-based. How it is done:
as §1

The next data set deals with S. aureus (NCTC 10788). The format is cell-based. How it is done:
as §1

The next data set concerns C. albicans (NCYC 1467). In kind it is cell-based. How it is done: as §1
The test system of data set [2] is P. aeruginosa (ATCC 27853). The format is cell-based. On the procedure:
as §1

The next data set has as its target T1, trypsin (Bos taurus, UniProt P00760).
T1 construct: gene PRSS1
T1 sequence (P00760 24-246): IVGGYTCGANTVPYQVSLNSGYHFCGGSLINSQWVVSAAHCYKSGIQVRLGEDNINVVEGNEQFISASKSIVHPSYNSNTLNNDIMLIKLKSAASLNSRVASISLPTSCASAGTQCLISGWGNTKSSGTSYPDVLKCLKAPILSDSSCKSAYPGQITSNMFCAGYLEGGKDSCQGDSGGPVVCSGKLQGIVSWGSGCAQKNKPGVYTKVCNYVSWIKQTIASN
Nature of the data set: Trypsin inhibition assay. The format is biochemical. On the procedure: (§2) The trypsin, chymotrypsin inhibition tests were performed as described previously. 10 µL tryptase (1 mg/mL, Calbiochem, UK) was added to the wells of a micro-titer plate containing 180 µL substrate (Boc-Phe-Ser-Arg-NHMec, obtained from Bachem, UK) (50 µM) and 20 µL synthetic replicates (0.1–100 µM) in a tryptase buffer, pH7.6, containing 0.05 M Tris, 0.15 M NaCl, and 0.2% (w/v) polyethylene glycol 6000 (final volume 210 µL).
The inhibition curves of the trypsin/chymotrypsin inhibition assay and tryptase inhibition assay were formed as outlined before.
(§3) The progress curves for the hydrolysis of the fluorogenic substrate were used to estimate an initial rate (Vi) to generate the Morrison plots. All of the progress curves and corresponding Morrison plots in the presence of each peptide of different concentrations are shown in Figure S4.

Another data set addresses T2, tryptase (Homo sapiens, UniProt Q15661).
T2 construct: purchased Calbiochem, UK
Kind of data set: Tryptase inhibition assay. In kind it is biochemical. The note with it: substrate Boc-Phe-Ser-Arg-NHMec 50 µM, peptide 0.1-100 µM, tryptase buffer pH 7.6, Morrison plot; average of three independent experiments. How it is done:
as §2
(§4) The rate of hydrolysis of the substrate was monitored by measuring the rate of increase of fluorescence due to the release of 7–amino–4–methylcoumarin (AMC) at 460 nm (excitation 360 nm) in a FLUOstar OPTIMA multi-well plate reader. The inhibition curves of the trypsin/chymotrypsin inhibition assay and tryptase inhibition assay were formed as outlined before.
as §3

The target of the next data set is chymotrypsin (Bos taurus, UniProt P00766). Kind of data set: Chymotrypsin inhibition assay. The note with it: fluorogenic substrate, AMC release (ex 360/em 460 nm), Morrison plot; average of three independent experiments. The format is biochemical. On the procedure:
as §2, §4
PPF-BBI and its analogues were tested for inhibitory activity against trypsin, chymotrypsin and tryptase, respectively. The progress curves for the hydrolysis of the fluorogenic substrate were used to estimate an initial rate (Vi) to generate the Morrison plots. All of the progress curves and corresponding Morrison plots in the presence of each peptide of different concentrations are shown in Figure S4.

The subject of the next data set is horse erythrocytes. Nature of the data set: Haemolysis test. The format is cell-based. The note with it: 2% suspension of horse erythrocytes, 512 to 1 µM peptide, 4 h; 2% Triton X-100 = 100% haemolysis. How it is done: The haemolytic activity of each peptide was measured by incubating a range of final peptide concentrations from 512 to 1 µM in a two-fold dilution in a 2% suspension of horse erythrocytes, as described in a previous study.
Figure 4 (a) The cell viability of the cancer cell lines H460, H157, H23, H838, HT-29, PC-3, U251MG and HMEC-1 at 4 mM 5-FU (stripe bar), 100 µM and 10 µM PPF-BBI, F^8-PPF-BBI, K^16-PPF-BBI and Tat-loop. The control represents the cell viability without any treatments. The statistical significance of difference was analyzed by a one-way ANOVA (* p < 0.05, **** p < 0.0001). (b) The haemolysis rates of PPF-BBI, F^8-PPF-BBI, K^16-PPF-BBI and Tat-loop on erythrocytes after being incubated for 4 h. The incubation of erythrocytes with 2% (v/v) Triton X-100 was designated as a positive control (100% haemolysis).

≈ marks a conversion by molar mass, not a printed value. Entries after “also recorded” stand apart in the source; their conditions may differ. Bridge positions count the residues as written; N and C are the ends. Peptide text beside a SMILES is read from it. A value given as a limit tells only on which side of the number the result lay.

T2 sequence (Q15661 31-275): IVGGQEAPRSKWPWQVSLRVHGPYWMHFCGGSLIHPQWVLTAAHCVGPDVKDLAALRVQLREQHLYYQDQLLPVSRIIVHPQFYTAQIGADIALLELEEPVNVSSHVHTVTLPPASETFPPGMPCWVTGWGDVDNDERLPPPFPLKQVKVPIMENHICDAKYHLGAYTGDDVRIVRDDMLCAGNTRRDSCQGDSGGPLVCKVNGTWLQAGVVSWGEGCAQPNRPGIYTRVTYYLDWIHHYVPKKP

Usually MBC stands for the lowest tested concentration that kills the bacteria rather than only halting them. What is called MIC is the least concentration at which growth counts as inhibited. The term Ki denotes the equilibrium dissociation constant of an inhibitor or competing ligand from its target. In the case of `CC[C@H](C)[C@@H]1NC(=O)[C@H](CO)NC(=O)[C@H](Cc2ccccc2)NC(=O)[C@H]([C@@H](C)O)NC(=O)[C@H](Cc2c[nH]c3ccccc23)NC(=O)[C@@H](NC(=O)CNC(=O)[C@H](CCCNC(=N)N)NC(=O)[C@H](CC(C)C)NC(=O)[C@H](C)N)CSSC[C@@H](C(=O)N2CCC[C@H]2C(N)=O)NC(=O)[C@@H]2CCCN2C(=O)[C@H](CCCCN)NC(=O)[C@@H]2CCCN2C(=O)[C@@H]2CCCN2C1=O` [F^8-PPF-BBI] (H-ALRGCWTFSIPPKPCP-NH2; disulfide 5-15), the MBC (in [1]; in the data set on E. coli (NCTC 10418); in the data set with S. aureus (NCTC 10788); with C. albicans (NCYC 1467); in [2]) was greater than 512 µM throughout. Further, the MIC (in data set [1]; against E. coli (NCTC 10418); with S. aureus (NCTC 10788); against C. albicans (NCYC 1467); in [2]) was greater than 512 µM each time. The “Ki (µM) of Trypsin” value on trypsin (fluorogenic substrate, AMC release (ex 360/em 460 nm), Morrison plot, average of three independent experiments) is recorded as “N.I.*”. For the same compound, the “Ki (µM) of Tryptase” value at tryptase is “N.I.*”. At chymotrypsin, this compound came in with a Ki of 0.85 µM.

`CC[C@H](C)[C@@H]1NC(=O)[C@H](CO)NC(=O)[C@H](CCCCN)NC(=O)[C@H]([C@@H](C)O)NC(=O)[C@H](Cc2c[nH]c3ccccc23)NC(=O)[C@@H](NC(=O)CNC(=O)[C@H](CCCNC(=N)N)NC(=O)[C@H](CC(C)C)NC(=O)[C@H](C)N)CSSC[C@@H](C(=O)N[C@@H](CCCCN)C(N)=O)NC(=O)[C@@H]2CCCN2C(=O)[C@H](CCCCN)NC(=O)[C@@H]2CCCN2C(=O)[C@@H]2CCCN2C1=O` [K^16-PPF-BBI] (H-ALRGCWTKSIPPKPCK-NH2; disulfide 5-15): the minimal bactericidal concentration (MBC) in data set [1] turned out to be 512 µM (≈ 912 µg/mL); in the data set on E. coli (NCTC 10418), 128 µM (≈ 228 µg/mL); against S. aureus (NCTC 10788), 64 µM (≈ 114 µg/mL); in the data set with C. albicans (NCYC 1467) it was 128 µM (≈ 228 µg/mL); in [2], 512 µM (≈ 912 µg/mL). For the same compound, the minimal inhibitory concentration (MIC) is 512 µM (≈ 912 µg/mL) in data set [1]; 128 µM (≈ 228 µg/mL) with E. coli (NCTC 10418); 64 µM (≈ 114 µg/mL) against S. aureus (NCTC 10788); 128 µM (≈ 228 µg/mL) in the data set with C. albicans (NCYC 1467); 512 µM (≈ 912 µg/mL) in data set [2]. Also, the inhibition constant (Ki) on trypsin worked out at 112 nM; at tryptase it was 9.67 µM. Moreover, the “Ki (µM) of Chymotrypsin” value at chymotrypsin was “N.I.*”.

As to `CC[C@H](C)[C@@H]1NC(=O)[C@H](CO)NC(=O)[C@H](CCCCN)NC(=O)[C@H]([C@@H](C)O)NC(=O)[C@H](Cc2c[nH]c3ccccc23)NC(=O)[C@@H](NC(=O)CNC(=O)[C@H](CCCNC(=N)N)NC(=O)[C@H](CC(C)C)NC(=O)[C@H](C)N)CSSC[C@@H](C(=O)N2CCC[C@H]2C(N)=O)NC(=O)[C@@H]2CCCN2C(=O)[C@H](CCCCN)NC(=O)[C@@H]2CCCN2C(=O)[C@@H]2CCCN2C1=O` [PPF-BBI] (H-ALRGCWTKSIPPKPCP-NH2; disulfide 5-15), the minimal bactericidal concentration (MBC) in data set [1] is greater than 512 µM; in the data set with E. coli (NCTC 10418) it was 128 µM (≈ 224 µg/mL); against S. aureus (NCTC 10788) it was 128 µM (≈ 224 µg/mL); in the data set on C. albicans (NCYC 1467), 512 µM (≈ 897 µg/mL); in [2] it was greater than 512 µM. Besides, the MIC in data set [1] was greater than 512 µM; against E. coli (NCTC 10418), 128 µM (≈ 224 µg/mL); in the data set with S. aureus (NCTC 10788) it was 128 µM (≈ 224 µg/mL); against C. albicans (NCYC 1467) it was 512 µM (≈ 897 µg/mL); in [2], greater than 512 µM. Moreover, the values for the inhibitory constant (Ki) at trypsin and at tryptase were 170 nM and 30.7 µM, respectively. The “Ki (µM) of Chymotrypsin” value at chymotrypsin is “N.I.*”.

In the case of `CC[C@H](C)[C@@H]1NC(=O)[C@H](CO)NC(=O)[C@H](CCCCN)NC(=O)[C@H]([C@@H](C)O)NC(=O)[C@H](Cc2c[nH]c3ccccc23)NC(=O)[C@@H](N)CSSC[C@@H](C(=O)O)NC(=O)[C@@H]2CCCN2C(=O)[C@H](CCCCN)NC(=O)[C@@H]2CCCN2C(=O)[C@@H]2CCCN2C1=O` [TIL, reference compound], the minimal bactericidal concentration (MBC) (in data set [1]; in the data set on E. coli (NCTC 10418); against S. aureus (NCTC 10788); in the data set with C. albicans (NCYC 1467); in data set [2]) was greater than 512 µM in each case. Moreover, the minimal inhibitory concentration (MIC) (in data set [1]; against E. coli (NCTC 10418); against S. aureus (NCTC 10788); in the data set on C. albicans (NCYC 1467); in data set [2]) was greater than 512 µM throughout. The “Ki (µM) of Tryptase” value at tryptase is reported as “lost their inhibitory activity; also recorded: N.I.*”. Besides, the “Ki (µM) of Chymotrypsin” value at chymotrypsin is reported as “N.I.*”.

Turning to `N=C(N)NCCC[C@H](NC(=O)[C@H](CCCNC(=N)N)NC(=O)[C@H](CCCNC(=N)N)NC(=O)[C@H](CCC(N)=O)NC(=O)[C@H](CCCNC(=N)N)NC(=O)[C@H](CCCNC(=N)N)NC(=O)[C@H](CCCCN)NC(=O)[C@H](CCCCN)NC(=O)[C@@H](N)CCCNC(=N)N)C(=O)O` [Tat, reference compound], the MBC in data set [1] is greater than 512 µM; against E. coli (NCTC 10418), 256 µM (≈ 343 µg/mL); against S. aureus (NCTC 10788) it was 512 µM (≈ 686 µg/mL); with C. albicans (NCYC 1467), greater than 512 µM; in data set [2], greater than 512 µM. Also, the MIC was greater than 512 µM in data set [1]; 256 µM (≈ 343 µg/mL) against E. coli (NCTC 10418); 512 µM (≈ 686 µg/mL) in the data set with S. aureus (NCTC 10788); greater than 512 µM against C. albicans (NCYC 1467); greater than 512 µM in data set [2].

Take `CC[C@H](C)[C@@H]1NC(=O)[C@H](CO)NC(=O)[C@H](CCCCN)NC(=O)[C@H]([C@@H](C)O)NC(=O)[C@H](Cc2c[nH]c3ccccc23)NC(=O)[C@@H](NC(=O)[C@H](CCCNC(=N)N)NC(=O)[C@H](CCCNC(=N)N)NC(=O)[C@H](CCCNC(=N)N)NC(=O)[C@H](CCC(N)=O)NC(=O)[C@H](CCCNC(=N)N)NC(=O)[C@H](CCCNC(=N)N)NC(=O)[C@H](CCCCN)NC(=O)[C@H](CCCCN)NC(=O)[C@@H](N)CCCNC(=N)N)CSSC[C@@H](C(=O)O)NC(=O)[C@@H]2CCCN2C(=O)[C@H](CCCCN)NC(=O)[C@@H]2CCCN2C(=O)[C@@H]2CCCN2C1=O` [Tat-loop] (H-RKKRRQRRRCWTKSIPPKPC-OH; disulfide 10-20): the minimum bactericidal concentration (MBC) came to 512 µM (≈ 1320 µg/mL) in data set [1]; 128 µM (≈ 330 µg/mL) in the data set with E. coli (NCTC 10418); 128 µM (≈ 330 µg/mL) with S. aureus (NCTC 10788); 8 µM (≈ 20.6 µg/mL) with C. albicans (NCYC 1467); 256 µM (≈ 660 µg/mL) in data set [2]. The MIC in data set [1] was determined as 256 µM (≈ 660 µg/mL); against E. coli (NCTC 10418) it was 128 µM (≈ 330 µg/mL); against S. aureus (NCTC 10788), 128 µM (≈ 330 µg/mL); against C. albicans (NCYC 1467), 4 µM (≈ 10.3 µg/mL); in data set [2], 256 µM (≈ 660 µg/mL). Besides, the Haemolytic activity entry with horse erythrocytes is “low haemolytic activity”. In addition, at trypsin, the affinity corresponds to a Ki of 607 nM. Moreover, the “Ki (µM) of Tryptase” value at tryptase was “lost their inhibitory activity; also recorded: N.I.*”. Also, on chymotrypsin, the “Ki (µM) of Chymotrypsin” value is given as “N.I.*”.
